Results published in patent US8323622B2, “Ionic complex nanoparticles for detecting heparanase activities and method for preparing the same” (Korea Institute of Science and Technology, priority 2009, dated 2012).

Key:
heparanase [1] = target: T1, heparanase (Homo sapiens, UniProt Q9Y251); test: Fluorescence recovery of nanoparticles treated with heparanase or heparanase+inhibitor; format: biochemical; conditions: 37[…], one hour; HS-Cy5.5/GC-BHQ3 probe
T1 sequence (Q9Y251 158-543 limits assumed): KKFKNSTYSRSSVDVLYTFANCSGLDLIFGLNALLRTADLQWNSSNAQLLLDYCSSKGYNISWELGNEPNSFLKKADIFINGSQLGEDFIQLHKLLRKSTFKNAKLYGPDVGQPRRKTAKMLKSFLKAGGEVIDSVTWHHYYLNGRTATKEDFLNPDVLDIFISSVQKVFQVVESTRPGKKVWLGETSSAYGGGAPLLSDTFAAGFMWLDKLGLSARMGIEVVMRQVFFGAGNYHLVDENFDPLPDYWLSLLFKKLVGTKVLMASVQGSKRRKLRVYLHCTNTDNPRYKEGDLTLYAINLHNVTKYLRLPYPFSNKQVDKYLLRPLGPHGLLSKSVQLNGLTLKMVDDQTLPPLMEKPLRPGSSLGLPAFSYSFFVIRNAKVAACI
T1 sequence (Q9Y251 36-109 limits assumed): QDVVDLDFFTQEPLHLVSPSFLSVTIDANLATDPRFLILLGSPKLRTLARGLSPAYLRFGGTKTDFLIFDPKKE
Experimental: By using the ionic-complex nanoparticles of HS-Cy5.5/GC-BHQ3 prepared in the preparation example 1, heparanase activities with or without heparanase inhibitor treatment were imaged.
The ionic-complex nanoparticles of HS-Cy5.5/GC-BHQ3 prepared in the preparation example 1 were treacted with ‘heparanase’ and ‘heparanase+inhibitor’ at a temperature of 37 °C for one hour, and then fluorescence emission therefrom by an enzyme degradation reaction was observed. After lapse of one hour, the fluorescence of the nanoparticles was observed by using a Kodak Image Station 4000MM Digital Imaging System mounted with a charge coupled device (CCD) camera. […] From the result, it could be seen that the ionic-complex nanoparticles of HS-Cy5.5/GC-BHQ3 could image heparanase enzymes, and could be applied to a composition for screening drugs of heparanase inhibitors or effects of drugs.

heparanase [2] = target: T2, heparanase (Mus musculus, UniProt Q6YGZ1); test: Imaging of heparanase expression in SCC7 cancer model; format: in vivo; conditions: 20 mg/kg heparin injected into cancer tissues 20 minutes before probe; SCC7 nude mice
T2 construct: It is known that the SCC7 cancer tissues express a large amount of heparanase; from tissue; host or cells: SCC7 tumour tissue in nude mice
T2 sequence (Q6YGZ1 150-535 limits assumed): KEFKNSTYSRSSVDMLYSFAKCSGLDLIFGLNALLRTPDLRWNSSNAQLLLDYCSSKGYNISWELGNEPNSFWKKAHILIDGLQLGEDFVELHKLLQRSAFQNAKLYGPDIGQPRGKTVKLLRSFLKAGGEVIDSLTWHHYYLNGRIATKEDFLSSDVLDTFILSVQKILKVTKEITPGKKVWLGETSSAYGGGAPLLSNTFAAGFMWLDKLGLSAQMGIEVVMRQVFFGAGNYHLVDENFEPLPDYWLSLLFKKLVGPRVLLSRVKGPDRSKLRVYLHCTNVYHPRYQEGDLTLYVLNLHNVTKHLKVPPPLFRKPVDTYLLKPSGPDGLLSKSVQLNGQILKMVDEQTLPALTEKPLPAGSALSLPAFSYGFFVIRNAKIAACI
T2 sequence (Q6YGZ1 28-101 limits assumed): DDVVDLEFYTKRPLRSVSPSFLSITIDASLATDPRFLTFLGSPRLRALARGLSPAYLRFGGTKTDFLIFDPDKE
Experimental: To establish a cancer model, 1×10^6 SCC7 cancer cells were implanted in nude mice. Here, the SCC7 are epithelial cancer cells, and commercially available from American Type Culture Collection (ATCC). Next, when the cancer has a size of about 5-8 mm, the ionic-complex nanoparticles of HS-Cy5.5/GC-BHQ3 were injected into veins of the mice tails. Then, heparanase expression was imaged by using an eXplore Optix image device.
It is known that the SCC7 cancer tissues express a large amount of heparanase. Accordingly, in order to test the ability of a heparanase inhibitor to inhibit heparanase, 20 mg/kg of heparin was injected into cancer tissues. After lapse of 20 minutes, the ionic-complex nanoparticles of HS-Cy5.5/GC-BHQ3 were injected into veins of the mice tails. Then, decrease of heparanase activities was imaged by using the explore Optix image device.

## heparin
Heparanase [1]
  fluorescence intensity of nanoparticles when 'heparanase+inhibitor' were treated: decreased
Heparanase [2]
  fluorescence intensity in cancer tissues of heparanase inhibitor-injected group: decreased fluorescence intensity
